# Data as given in ChEMBL document CHEMBL1201861, “Genomics of Drug Sensitity in Cancer screening data, Wellcome Trust Sanger Institute”.
# Experiments:
# COR-L23 = experiment: cells; format: functional, cell-based; settings: Homo sapiens;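 note: cell viability assay measuring how strongly compounds suppress growth of COR-L23 cells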
# Description: SANGER: Inhibition of human COR-L23 cell growth in a cell viability assay.
# COR-L279 = experiment: SANGER: Inhibition of human COR-L279 cell growth in a cell viability assay.; format: functional, cell-based
# ChaGo-K-1 = experiment: cells; format: functional, cell-based; settings: Homo sapiens;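 note: growth inhibition of ChaGo-K-1 cells, read out with a cell viability assay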
# Description: SANGER: Inhibition of human ChaGo-K-1 cell growth in a cell viability assay.
# D-542MG = experiment: cells; format: functional, cell-based; settings: Homo sapiens
# Description: SANGER: Inhibition of human D-542MG cell growth in a cell viability assay.
# Daudi = experiment: cells; format: functional, cell-based; settings: Homo sapiens;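 note: growth inhibition of Daudi cells, read out by a viability assay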
# Description: SANGER: Inhibition of human Daudi cell growth in a cell viability assay.
# EB2 = experiment: cells; format: functional, cell-based; settings: Homo sapiens;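 note: growth inhibition of EB2 cells, read out with a cell viability assay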
# Description: SANGER: Inhibition of human EB2 cell growth in a cell viability assay.
# ECC4 = experiment: cells; format: functional, cell-based; settings: Homo sapiens;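 note: growth inhibition of ECC4 cells, read out with a cell viability assay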
# Description: SANGER: Inhibition of human ECC4 cell growth in a cell viability assay.
# EGI-1 = experiment: cells; format: functional, cell-based; settings: Homo sapiens;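 note: cell viability readout used to gauge growth inhibition of EGI-1 cells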
# Description: SANGER: Inhibition of human EGI-1 cell growth in a cell viability assay.
# EVSA-T = experiment: cells; format: functional, cell-based; settings: Homo sapiens;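 note: growth inhibition of EVSA-T cells, read out with a cell viability assay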
# Description: SANGER: Inhibition of human EVSA-T cell growth in a cell viability assay.
# HCT-116 = experiment: cells; format: functional, cell-based; settings: Homo sapiens
# Description: SANGER: Inhibition of human HCT-116 cell growth in a cell viability assay.
# HLE = experiment: cells; format: functional, cell-based; settings: Homo sapiens;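 note: growth inhibition of human HLE cells, read out by a cell viability assay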
# Description: SANGER: Inhibition of human HLE cell growth in a cell viability assay.
# HPAF-II = experiment: cells; format: functional, cell-based; settings: Homo sapiens;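 note: growth inhibition of HPAF-II cells, read out with a cell viability assay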
# Description: SANGER: Inhibition of human HPAF-II cell growth in a cell viability assay.
# HT1197 = experiment: cells; format: functional, cell-based, HT-1197; settings: Homo sapiens
# Description: SANGER: Inhibition of human HT-1197 cell growth in a cell viability assay.
# HuP-T4 = experiment: cells; format: functional, cell-based; settings: Homo sapiens;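 note: cell viability assay measuring how much HuP-T4 cell growth is inhibited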
# Description: SANGER: Inhibition of human HuP-T4 cell growth in a cell viability assay.
# IST-SL2 = experiment: cells; format: functional, cell-based; settings: Homo sapiens;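 note: growth inhibition of human IST-SL2 cells, read out by a cell viability assay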
# Description: SANGER: Inhibition of human IST-SL2 cell growth in a cell viability assay.
# KMS-12-PE = experiment: cells; format: functional, cell-based; settings: Homo sapiens;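 note: growth inhibition of human KMS-12-PE cells, measured with a cell viability assay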
# Description: SANGER: Inhibition of human KMS-12-PE cell growth in a cell viability assay.
# KU-19-19 = experiment: cells; format: functional, cell-based; settings: Homo sapiens
# Description: SANGER: Inhibition of human KU-19-19 cell growth in a cell viability assay.
# KYSE-150 cell line = experiment: cells; format: functional, cell-based; settings: Homo sapiens;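 note: growth inhibition of human KYSE-150 cells, read out with a cell viability assay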
# Description: SANGER: Inhibition of human KYSE-150 cell growth in a cell viability assay.
# KYSE-180 = experiment: cells; format: functional, cell-based; settings: Homo sapiens;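 note: growth inhibition of KYSE-180 cells, read out with a cell viability assay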
# Description: SANGER: Inhibition of human KYSE-180 cell growth in a cell viability assay.
# KYSE-270 = experiment: cells; format: functional, cell-based; settings: Homo sapiens;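 note: cell growth inhibition measured with a viability assay in the human KYSE-270 line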
# Description: SANGER: Inhibition of human KYSE-270 cell growth in a cell viability assay.
# LB996-RCC = experiment: cells; format: functional, cell-based; settings: Homo sapiens
# Description: SANGER: Inhibition of human LB996-RCC cell growth in a cell viability assay.
# MDA-MB-468 = experiment: cells; format: functional, cell-based; settings: Homo sapiens
# Description: SANGER: Inhibition of human MDA-MB-468 cell growth in a cell viability assay.
# ME-180 = experiment: cells; format: functional, cell-based; settings: Homo sapiens;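 note: cell viability assay measuring growth inhibition of ME-180 cells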
# Description: SANGER: Inhibition of human ME-180 cell growth in a cell viability assay.
# MEL-HO = experiment: cells; format: functional, cell-based; settings: Homo sapiens
# Description: SANGER: Inhibition of human MEL-HO cell growth in a cell viability assay.
# MEL-JUSO = experiment: cells; format: functional, cell-based; settings: Homo sapiens;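 note: growth inhibition of human MEL-JUSO cells, read out with a cell viability assay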
# Description: SANGER: Inhibition of human MEL-JUSO cell growth in a cell viability assay.
# MONO-MAC-6 = experiment: cells; format: functional, cell-based; settings: Homo sapiens;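 note: cell viability assay measuring growth inhibition of human MONO-MAC-6 cells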
# Description: SANGER: Inhibition of human MONO-MAC-6 cell growth in a cell viability assay.
# NB1 = experiment: cells; format: functional, cell-based; settings: Homo sapiens;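 note: reduction of NB1 cell proliferation, read out with a viability assay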
# Description: SANGER: Inhibition of human NB1 cell growth in a cell viability assay.
# NCI-H1703 = experiment: cells; format: functional, cell-based; settings: Homo sapiens;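 note: growth inhibition of NCI-H1703 cells, read out via a cell viability assay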
# Description: SANGER: Inhibition of human NCI-H1703 cell growth in a cell viability assay.
# NCI-H2081 = experiment: cells; format: functional, cell-based; settings: Homo sapiens;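 note: growth inhibition of human NCI-H2081 cells, read out with a cell viability assay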
# Description: SANGER: Inhibition of human NCI-H2081 cell growth in a cell viability assay.
# NCI-H2228 = experiment: cells; format: functional, cell-based; settings: Homo sapiens;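 note: growth inhibition of human NCI-H2228 cells, read out by a cell viability assay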
# Description: SANGER: Inhibition of human NCI-H2228 cell growth in a cell viability assay.
# NCI-H2347 = experiment: cells; format: functional, cell-based; settings: Homo sapiens;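 note: growth inhibition of the cell line, read out with a cell viability assay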
# Description: SANGER: Inhibition of human NCI-H2347 cell growth in a cell viability assay.
# NCI-H322M = experiment: cells; format: functional, cell-based; settings: Homo sapiens;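 note: cell viability assay measuring inhibition of growth of human NCI-H322M cells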
# Description: SANGER: Inhibition of human NCI-H322M cell growth in a cell viability assay.
# NCI-H748 = experiment: cells; format: functional, cell-based; settings: Homo sapiens;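 note: growth inhibition of NCI-H748 cells, measured by a cell viability assay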
# Description: SANGER: Inhibition of human NCI-H748 cell growth in a cell viability assay.
# NCI-H889 = experiment: cells; format: functional, cell-based; settings: Homo sapiens;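 note: cell growth inhibition of the cell line, read out with a viability assay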
# Description: SANGER: Inhibition of human NCI-H889 cell growth in a cell viability assay.
# SNU-16 = experiment: cells; format: functional, cell-based; settings: Homo sapiens;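 note: growth inhibition of human SNU-16 cells, determined with a cell viability readout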
# Description: SANGER: Inhibition of human NCI-SNU-16 cell growth in a cell viability assay.
# PANC-03-27 = experiment: cells; format: functional, cell-based; settings: Homo sapiens
# Description: SANGER: Inhibition of human PANC-03-27 cell growth in a cell viability assay.
# PANC-08-13 = experiment: cells; format: functional, cell-based; settings: Homo sapiens
# Description: SANGER: Inhibition of human PANC-08-13 cell growth in a cell viability assay.
# PC-14 = experiment: cells; format: functional, cell-based; settings: Homo sapiens;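 note: cell viability assay measuring inhibition of PC-14 cell growth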
# Description: SANGER: Inhibition of human PC-14 cell growth in a cell viability assay.
# PLC-PRF-5 = experiment: cells; format: functional, cell-based; settings: Homo sapiens;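 note: growth inhibition of human PLC-PRF-5 cells, read out with a viability assay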
# Description: SANGER: Inhibition of human PLC-PRF-5 cell growth in a cell viability assay.
# RERF-LC-MS = experiment: cells; format: functional, cell-based; settings: Homo sapiens;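 note: growth inhibition of human RERF-LC-MS cells, read out by a cell viability assay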
# Description: SANGER: Inhibition of human RERF-LC-MS cell growth in a cell viability assay.
# RMG-I = experiment: cells; format: functional, cell-based; settings: Homo sapiens;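 note: growth inhibition of human RMG-I cells, read out with a cell viability assay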
# Description: SANGER: Inhibition of human RMG-I cell growth in a cell viability assay.
# RPMI 8402 = experiment: SANGER: Inhibition of human RPMI-8402 cell growth in a cell viability assay.; format: functional, cell-based
# RT-4 = experiment: SANGER: Inhibition of human RT4 cell growth in a cell viability assay.; format: functional, cell-based
# SNU-387 = experiment: cells; format: functional, cell-based; settings: Homo sapiens
# Description: SANGER: Inhibition of human SNU-387 cell growth in a cell viability assay.
# SNU-423 = experiment: cells; format: functional, cell-based; settings: Homo sapiens
# Description: SANGER: Inhibition of human SNU-423 cell growth in a cell viability assay.
# SW1463 = experiment: cells; format: functional, cell-based; settings: Homo sapiens;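 note: growth inhibition of SW1463 cells, determined with a cell viability assay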
# Description: SANGER: Inhibition of human SW1463 cell growth in a cell viability assay.
# SW48 = experiment: cells; format: functional, cell-based; settings: Homo sapiens;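 note: growth inhibition of SW48 cells, read out with a cell viability assay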
# Description: SANGER: Inhibition of human SW48 cell growth in a cell viability assay.
# SW780 = experiment: cells; format: functional, cell-based; settings: Homo sapiens;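 note: growth inhibition of the cells, read out with a cell viability assay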
# Description: SANGER: Inhibition of human SW780 cell growth in a cell viability assay.
# T47D = experiment: cells; format: functional, cell-based; settings: Homo sapiens;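 note: growth inhibition of human T47D cells, measured with a cell viability assay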
# Description: SANGER: Inhibition of human T47D cell growth in a cell viability assay.
# 647-V = experiment: cells; format: functional, cell-based; settings: Homo sapiens;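 note: growth inhibition of 647-V cells, read out with a cell viability assay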
# Description: SANGER: Inhibition of human 647-V cell growth in a cell viability assay.
# A 172 = experiment: cells; format: functional, cell-based; settings: Homo sapiens;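 note: growth inhibition of A172 cells, measured with a cell viability readout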
# Description: SANGER: Inhibition of human A172 cell growth in a cell viability assay.
# A253 cell line = experiment: cells; format: functional, cell-based; settings: Homo sapiens;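 note: growth inhibition of A253 cells, read out with a cell viability assay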
# Description: SANGER: Inhibition of human A253 cell growth in a cell viability assay.
# AGS = experiment: cells; format: functional, cell-based; settings: Homo sapiens;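 note: growth inhibition of AGS cells, determined with a cell viability assay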
# Description: SANGER: Inhibition of human AGS cell growth in a cell viability assay.
# BFTC-909 = experiment: cells; format: functional, cell-based; settings: Homo sapiens
# Description: SANGER: Inhibition of human BFTC-909 cell growth in a cell viability assay.
# C3A = experiment: cells; format: functional, cell-based; settings: Homo sapiens;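 note: growth inhibition of C3A human cells, quantified with a cell viability readout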
# Description: SANGER: Inhibition of human C3A cell growth in a cell viability assay.
# CAL-51 = experiment: cells; format: functional, cell-based; settings: Homo sapiens;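 note: human CAL-51 cell line, growth inhibition read out via a cell viability assay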
# Description: SANGER: Inhibition of human CAL-51 cell growth in a cell viability assay.
# CAL-62 = experiment: cells; format: functional, cell-based; settings: Homo sapiens;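 note: growth inhibition of CAL-62 cells, read out with a cell viability assay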
# Description: SANGER: Inhibition of human CAL-62 cell growth in a cell viability assay.
# TE-441-T = experiment: cells; format: functional, cell-based; settings: Homo sapiens
# Description: SANGER: Inhibition of human TE-441-T cell growth in a cell viability assay.
# TYK-nu = experiment: cells; format: functional, cell-based; settings: Homo sapiens;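 note: growth inhibition of human TYK-nu cells, read out by a cell viability assay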
# Description: SANGER: Inhibition of human TYK-nu cell growth in a cell viability assay.
smiles,measurement,setting,value
CO[C@@]12[C@H](COC(N)=O)C3=C(C(=O)C(C)=C(N)C3=O)N1C[C@@H]1N[C@@H]12 [MITOMYCIN],IC50,COR-L23,241 nM
same,IC50,COR-L279,< 62.5 nM
same,IC50,ChaGo-K-1,1910 nM
same,IC50,D-542MG,602 nM
same,IC50,Daudi,392 nM
same,IC50,EB2,65.4 nM
same,IC50,ECC4,5070 nM
same,IC50,EGI-1,2390 nM
same,IC50,EVSA-T,1570 nM
same,IC50,HCT-116,1020 nM
same,IC50,HLE,498 nM
same,IC50,HPAF-II,1100 nM
same,IC50,HT1197,2020 nM
same,IC50,HuP-T4,108 nM
same,IC50,IST-SL2,388 nM
same,IC50,KMS-12-PE,3830 nM
same,IC50,KU-19-19,3360 nM
same,IC50,KYSE-150 cell line,34.1 nM
same,IC50,KYSE-180,202 nM
same,IC50,KYSE-270,103 nM
same,IC50,LB996-RCC,17.7 nM
same,IC50,MDA-MB-468,345 nM
same,IC50,ME-180,40.1 nM
same,IC50,MEL-HO,39.4 nM
same,IC50,MEL-JUSO,51.3 nM
same,IC50,MONO-MAC-6,72.4 nM
same,IC50,NB1,187 nM
same,IC50,NCI-H1703,277 nM
same,IC50,NCI-H2081,741 nM
same,IC50,NCI-H2228,< 62.5 nM
same,IC50,NCI-H2347,850 nM
same,IC50,NCI-H322M,1800 nM
same,IC50,NCI-H748,59.5 nM
same,IC50,NCI-H889,2480 nM
same,IC50,SNU-16,6740 nM
same,IC50,PANC-03-27,167 nM
same,IC50,PANC-08-13,2400 nM
same,IC50,PC-14,491 nM
same,IC50,PLC-PRF-5,4190 nM
same,IC50,RERF-LC-MS,1030 nM
same,IC50,RMG-I,3460 nM
same,IC50,RPMI 8402,17.1 nM
same,IC50,RT-4,1700 nM
same,IC50,SNU-387,2930 nM
same,IC50,SNU-423,1520 nM
same,IC50,SW1463,2080 nM
same,IC50,SW48,193 nM
same,IC50,SW780,> 16000 nM
same,IC50,T47D,6370 nM
same,IC50,647-V,87.4 nM
same,IC50,A 172,538 nM
same,IC50,A253 cell line,346 nM
same,IC50,AGS,106 nM
same,IC50,BFTC-909,85.3 nM
same,IC50,C3A,194 nM
same,IC50,CAL-51,30.9 nM
same,IC50,CAL-62,242 nM
same,IC50,TE-441-T,1600 nM
same,IC50,TYK-nu,58.7 nM
CC(C)=CC[C@@H](O)C1=CC(=O)c2c(O)ccc(O)c2C1=O [SHIKONIN],IC50,COR-L23,301 nM
same,IC50,COR-L279,> 16000 nM
same,IC50,ChaGo-K-1,657 nM
same,IC50,D-542MG,581 nM
same,IC50,Daudi,3440 nM
same,IC50,EB2,311 nM
same,IC50,ECC4,1200 nM
same,IC50,EGI-1,2510 nM
same,IC50,EVSA-T,410 nM
same,IC50,HCT-116,386 nM
same,IC50,HLE,88.3 nM
same,IC50,HPAF-II,1270 nM
same,IC50,HT1197,276 nM
same,IC50,HuP-T4,1360 nM
same,IC50,IST-SL2,200 nM
same,IC50,KMS-12-PE,559 nM
same,IC50,KU-19-19,3180 nM
same,IC50,KYSE-150 cell line,902 nM
same,IC50,KYSE-180,1010 nM
same,IC50,KYSE-270,217 nM
same,IC50,LB996-RCC,> 16000 nM
same,IC50,MDA-MB-468,967 nM
same,IC50,ME-180,279 nM
same,IC50,MEL-HO,149 nM
same,IC50,MEL-JUSO,540 nM
same,IC50,MONO-MAC-6,245 nM
same,IC50,NB1,1030 nM
same,IC50,NCI-H1703,2300 nM
same,IC50,NCI-H2081,1520 nM
same,IC50,NCI-H2228,901 nM
same,IC50,NCI-H2347,968 nM
same,IC50,NCI-H322M,> 16000 nM
same,IC50,NCI-H748,1780 nM
same,IC50,NCI-H889,> 16000 nM
same,IC50,SNU-16,> 16000 nM
same,IC50,PANC-03-27,167 nM
same,IC50,PANC-08-13,10400 nM
same,IC50,PC-14,1510 nM
same,IC50,PLC-PRF-5,1820 nM
same,IC50,RERF-LC-MS,4190 nM
same,IC50,RMG-I,864 nM
same,IC50,RPMI 8402,1500 nM
same,IC50,RT-4,10100 nM
same,IC50,SNU-387,1070 nM
same,IC50,SNU-423,163 nM
same,IC50,SW1463,8610 nM
same,IC50,SW48,1260 nM
same,IC50,SW780,406 nM
same,IC50,T47D,223 nM
same,IC50,647-V,359 nM
same,IC50,A 172,470 nM
same,IC50,A253 cell line,< 62.5 nM
same,IC50,AGS,613 nM
same,IC50,BFTC-909,3630 nM
same,IC50,C3A,657 nM
same,IC50,CAL-51,20.9 nM
same,IC50,CAL-62,1280 nM
same,IC50,TE-441-T,< 62.5 nM
same,IC50,TYK-nu,1150 nM
C/C=C(/C)C(=O)O[C@H]1C(C)=C2[C@H]([C@@H]1OC(=O)CCCCCCC)[C@@](C)(OC(C)=O)C[C@H](OC(=O)CCC)[C@@]1(O)[C@H]2OC(=O)[C@@]1(C)O [THAPSIGARGIN],IC50,COR-L23,0.749 nM
same,IC50,COR-L279,36.3 nM
same,IC50,ChaGo-K-1,3.29 nM
same,IC50,D-542MG,6.93 nM
same,IC50,Daudi,3.63 nM
same,IC50,EB2,10.4 nM
same,IC50,ECC4,> 512 nM
same,IC50,EGI-1,21.7 nM
same,IC50,EVSA-T,122 nM
same,IC50,HCT-116,0.943 nM
same,IC50,HLE,2.75 nM
same,IC50,HPAF-II,61.9 nM
same,IC50,HT1197,> 512 nM
same,IC50,HuP-T4,1.3 nM
same,IC50,IST-SL2,6.76 nM
same,IC50,KMS-12-PE,297 nM
same,IC50,KU-19-19,80 nM
same,IC50,KYSE-150 cell line,22.2 nM
same,IC50,KYSE-180,1.16 nM
same,IC50,KYSE-270,1.49 nM
same,IC50,LB996-RCC,31.3 nM
same,IC50,MDA-MB-468,3.98 nM
same,IC50,ME-180,> 512 nM
same,IC50,MEL-HO,1.9 nM
same,IC50,MEL-JUSO,< 2 nM
same,IC50,MONO-MAC-6,3.8 nM
same,IC50,NB1,27.1 nM
same,IC50,NCI-H1703,10.1 nM
same,IC50,NCI-H2081,> 512 nM
same,IC50,NCI-H2228,8 nM
same,IC50,NCI-H2347,10.2 nM
same,IC50,NCI-H322M,> 512 nM
same,IC50,NCI-H748,31.3 nM
same,IC50,NCI-H889,> 512 nM
same,IC50,SNU-16,189 nM
same,IC50,PANC-03-27,< 2 nM
same,IC50,PANC-08-13,23.8 nM
same,IC50,PC-14,8.01 nM
same,IC50,PLC-PRF-5,91.8 nM
same,IC50,RERF-LC-MS,1.37 nM
same,IC50,RMG-I,13.3 nM
same,IC50,RPMI 8402,5.23 nM
same,IC50,RT-4,3.74 nM
same,IC50,SNU-387,2.2 nM
same,IC50,SNU-423,< 2 nM
same,IC50,SW1463,> 512 nM
same,IC50,SW48,1.67 nM
same,IC50,SW780,> 512 nM
same,IC50,T47D,> 512 nM
same,IC50,647-V,13.7 nM
same,IC50,A 172,< 2 nM
same,IC50,A253 cell line,1.73 nM
same,IC50,AGS,8.78 nM
same,IC50,BFTC-909,0.968 nM
same,IC50,C3A,30.3 nM
same,IC50,CAL-51,0.971 nM
same,IC50,CAL-62,71.6 nM
same,IC50,TE-441-T,48.8 nM
same,IC50,TYK-nu,< 2 nM
